“Also recorded” adds a separate entry of the source.
Assays:
Format in all cases: in vivo
quinine (10 mg/kg) = experiment: Bitter-duo test (paired comparison, trained panel, nose-clips) with quinine
Experimental: (§1) A trained panel was given different samples with the bitter tasting substances caffeine (500 mg/kg), quinine (10 mg/kg) and naringin (100 mg/kg). Caffeine is the bitter principle of coffee and coffee-type beverages, quinine is used as food additive to flavor tonics or energy drinks and naringin is the bitter principle of grapefruit juice. Each test includes a different amount of bitter-masking substances or mixtures thereof. During the tests, the panellists wear nose-clips to exclude any olfactory impressions. These tests are referred to as bitter-duo tests.
In a first trial, above mentioned bitter samples were mixed with 10 mg/kg eriodictyol-7-O-glucoside at a purity of >95%.
In a second test, the bitter agents were mixed with 50 mg/kg eriocitrin at a purity of >95% and the bitter-masking effect evaluated by the panel.
Another trial was set-up using samples with 10 mg/kg quinine and 50 mg/kg eriodictyol (ED) alone or with an inventive flavoring composition containing eriodictyol-7-O-glucoside (EDMG) and neoeriocitrin (NEC) eriocitrin (EC). […] The same effect was observed when using neoeriocitrin instead of eriocitrin. The wt.-% are based on the dry weight of the flavoring composition.
Other solvents than methanol, mixtures of solvents and different CV ratios can be used in order to achieve the same purification than with methanol as described herein. The column volume ration (CV) is the ratio of column bed volume and volume of solution flowing through column. The product was evaluated by a sensory panel (n=20).

vegan patty = experiment: Blind tasting of vegan patties by a panel (sensory profile)
Experimental: A vegan patty has been produced containing the following ingredients: water, leguminose protein isolate, sun flower oil, leguminose protein concentrate, coconut oil, methylcellulose, fiber, salt, starch, lactic acid and sodium diacetate. Water, thickener and starch are mixed with water, pH is adjusted, proteins are added next followed by fibre and oil ingredients. Finally, a taste masking ingredient according to Table 4 is added. The ingredients are thoroughly mixed and the dough is formed to patties. The patties where baked in an oven at 200° C. After cooling the patties, patties were sliced and samples were coded for a blind tasting with a panel.

caffeine (500 mg/kg) [1] = experiment: Pairwise bitter intensity rating (scale 1-100) in water with 500 mg/kg caffeine; conditions: for bitter masking of caffeine solution (in words): 50 mg/kg, 500 mg/kg caffeine; for Bitter intensity [0-100] of base: taste modulator 50 mg/kg in water with 500 mg/kg caffeine
Experimental: The said mixture can be compared with further taste modulating compounds to impart taste modulating sensory effects. […] A masking mixture comprising three parts hesperetin, two parts naringenin and two parts of the inventive citrus hydrolysate (55 wt.-% ED, 11.1 wt.-% EDMG, 1.5 wt.-% EC) was tested with 50 mg/kg dosage against naringenin, hesperetin and homoeriodictyol (No. 1-3, Table 5). The compounds and the mixture were all solved in water with added 500 mg/kg caffeine as bitter agent. The panelists were asked to rate the bitter intensity of each sample of one sample pair on a scale of 1-100. […] Said mixtures can be obtained by mixing the inventive citrus hydrolysate with hydrolysates from orange (yielding hesperetin), grapefruit or bergamot (yielding naringenin) or bitter orange and lime among other citrus fruits.

caffeine (500 mg/kg) [2] = experiment: Bitter-duo test (paired comparison, trained panel, nose-clips) with caffeine
Experimental: as §1, with “tests. In a first trial, above mentioned bitter samples were mixed with 10 mg/kg eriodictyol-7-O-glucoside at a purity of >95%. […] In a second test, the bitter agents were mixed with 50 mg/kg eriocitrin at a purity of >95% and the bitter-masking effect evaluated by the panel.” for “tests.”

naringin (100 mg/kg) = experiment: Bitter-duo test (paired comparison, trained panel, nose-clips) with naringin
Experimental: as §1, with “tests. In a first trial, above mentioned bitter samples were mixed with 10 mg/kg eriodictyol-7-O-glucoside at a purity of >95%. […] In a second test, the bitter agents were mixed with 50 mg/kg eriocitrin at a purity of >95% and the bitter-masking effect evaluated by the panel.” for “tests.”

[3] = Own taste of eriodictyol-7-O-glucoside at higher concentration; conditions: concentration above 50 mg/kg
[4] = Table 2, dosage 10 mg/kg in table (text: 50 mg/kg), 20 panelists
[5] = Table 1, dosage 10 mg/kg, 20 panellists

O=C1C[C@@H](c2ccc(O)c(O)c2)Oc2cc(O)cc(O)c21 [ED, Eriodictyol]
Bitter masking activity (%) (quinine (10 mg/kg); Table 3, dosage 50 mg/kg, 10 mg/kg quinine, 18-20 panellists): −31.0% | taste improving and bitter masking property (in words) (vegan patty): improved the taste profile

COc1ccc([C@@H]2CC(=O)c3c(O)cc(O)cc3O2)cc1O [Hesperetin]
bitter masking of caffeine solution (in words) (caffeine (500 mg/kg) [1]): not potent bitter masking compounds | Bitter intensity [0-100] of base (caffeine (500 mg/kg) [1]): 39

COc1cc([C@@H]2CC(=O)c3c(O)cc(O)cc3O2)ccc1O [Homoeriodictyol]
taste improving and bitter masking property (in words) (vegan patty): improved the taste profile; also recorded: reduced the bitterness more than eriodictyol | Bitter intensity [0-100] of base (caffeine (500 mg/kg) [1]): 37.5

O=C1C[C@@H](c2ccc(O)cc2)Oc2cc(O)cc(O)c21 [Naringenin]
bitter masking of caffeine solution (in words) (caffeine (500 mg/kg) [1]): not potent bitter masking compounds | Bitter intensity [0-100] of base (caffeine (500 mg/kg) [1]): 36.4

C[C@@H]1O[C@@H](OC[C@H]2O[C@@H](Oc3cc(O)c4c(c3)O[C@H](c3ccc(O)c(O)c3)CC4=O)[C@H](O)[C@@H](O)[C@@H]2O)[C@H](O)[C@H](O)[C@H]1O [eriocitrin, Eriocitrin]
bitter masking effect (in words) (caffeine (500 mg/kg) [2]; 50 mg/kg, purity >95%): not significant | Bitter masking activity (%) (caffeine (500 mg/kg) [2]; [4]): 5.6% | bitter masking effect (in words) (quinine (10 mg/kg); 50 mg/kg, purity >95%, quinine 10 mg/kg): not significant | Bitter masking activity (%) (quinine (10 mg/kg); Table 2, dosage 10 mg/kg in table (text: 50 mg/kg), quinine 10 mg/kg, 20 panelists): −1.6% | bitter masking effect (in words) (naringin (100 mg/kg); 50 mg/kg, purity >95%): not significant | Bitter masking activity (%) (naringin (100 mg/kg); [4]): 0.8%

O=C1C[C@@H](c2ccc(O)c(O)c2)Oc2cc(O[C@@H]3O[C@H](CO)[C@@H](O)[C@H](O)[C@H]3O)cc(O)c21 [eriodictyol-7-O-glucoside]
bitter-reducing effect (in words) (caffeine (500 mg/kg) [2]; 10 mg/kg, purity >95%): not significant | Bitter masking activity (%) (caffeine (500 mg/kg) [2]; [5]): −1.94% | bitter-reducing effect (in words) (quinine (10 mg/kg); 10 mg/kg, purity >95%, quinine 10 mg/kg): not significant | Bitter masking activity (%) (quinine (10 mg/kg); Table 1, dosage 10 mg/kg, quinine 10 mg/kg, 20 panellists): −7.42% | bitter-reducing effect (in words) (naringin (100 mg/kg); 10 mg/kg, purity >95%): not significant | Bitter masking activity (%) (naringin (100 mg/kg); [5]): −2.59% | own taste notes [3]: bitter notes
